# In patent US10961222B2, “Chemical compound of isocitrate dehydrogenase inhibitor, and application thereof” (NANJING SANHOME PHARMACEUTICAL CO., LTD., priority 2016, dated 2021):
# Assays:
# [1] = test system: human acute myeloid leukemia AM7577 cells; experiment: Human acute myeloid leukemia NOD/SCID animal model: survival; assay type: in vivo, NOD/SCID mice; conditions: gavage once a day for 14 days, 14 days after administration
# Description: 1.1 Compounds to be tested: the compounds of the present disclosure prepared in the above examples, each of which was formulated into a solution in corresponding concentrations by using a vehicle (2% absolute ethanol:10% Solutol™: 88% physiological saline (v/v/v)).
# 1.2 Cells: human acute myeloid leukemia AM7577 cells, provided by Sino-American Crown Biotechnology (Beijing) Co., Ltd
# 1.4 Animals: NOD/SCID mice, 3-4 weeks old, female, purchased from Beijing Huakangkang Biotechnology Co., Ltd
# Each mouse was inoculated through the tail vein at an amount of 2×10^6 cells resuspended in 100 uL of PBS.
# Orbital blood samples of animals were collected weekly, labeled with human CD45, and the percentage of positive cells was detected. The animals were grouped when the percentage of peripheral blood CD45+ cells reached 5%. The proportion of peripheral blood CD45+ cells reached 5% on the 40th day after inoculation. After grouping, drugs were administered by gastric gavageonce once a day for 14 days.
# The mortality rate of the animals after administration and the survival period of the surviving animals were observed.
# IDH2-R140Q mutant enzyme = molecular target: T1, IDH2-R140Q mutant enzyme (Homo sapiens, UniProt P48735, R140Q); experiment: Inhibitory activity of compounds on IDH2-R140Q enzyme in vitro (diaphorase/resazurin fluorescence); assay type: biochemical; conditions: R140Q IC50, IDH2-R140Q, pre-incubated 16 h with enzyme and NADPH, reaction 1 h with α-ketoglutarate
# T1 construct: purchased BPS 71100-1
# T1 sequence (P48735 40-452 R140Q): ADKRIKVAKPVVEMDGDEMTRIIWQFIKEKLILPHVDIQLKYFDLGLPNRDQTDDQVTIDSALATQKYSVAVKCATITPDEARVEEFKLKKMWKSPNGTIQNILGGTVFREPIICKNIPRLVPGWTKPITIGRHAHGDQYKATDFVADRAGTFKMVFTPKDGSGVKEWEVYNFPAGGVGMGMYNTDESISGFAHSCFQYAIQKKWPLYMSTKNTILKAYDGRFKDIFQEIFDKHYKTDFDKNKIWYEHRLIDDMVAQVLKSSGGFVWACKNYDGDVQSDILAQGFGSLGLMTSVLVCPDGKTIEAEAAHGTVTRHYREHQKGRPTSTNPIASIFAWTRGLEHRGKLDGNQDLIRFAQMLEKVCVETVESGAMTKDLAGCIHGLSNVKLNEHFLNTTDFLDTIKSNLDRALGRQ
# [2] = test system: U87-MG (IDH2-R140Q) subcutaneous xenograft tumor; experiment: Subcutaneous xenograft tumor caused by U87-MG (IDH2-R140Q) mutant cells in vivo: intratumor 2-HG; set-up: species or system BALB/c nude mice; conditions: intragastric, 10 days, mean, relative to U87-MG (IDH2-R140Q) control group
# Description: 1.2 Animals: BALB/c nude mice, 6-7 weeks old, female, 18-22 g, purchased from Nanjing Jinlaichang Company.
# U87-MG (IDH2-R140Q) cells and U87-MG cells (wild type) were expanded, and cells in logarithmic growth phase were used for tumor inoculation in vivo. 16 mice were inoculated subcutaneously into the right lower back of the body at an amount of 2×10^6 cells/mouse (the volume ratio of cell suspension to Matrigel was 1:0.8).
# The non-mutation control group was nude mice inoculated with U87-MG cells, and the test compound groups and vehicle control group were nude mice inoculated with U87-MG (IDH2-R140Q) cells.
# Each group was intragastrically administered with a corresponding concentration of the compound solution, the administration volume was 100 μL/10 g body weight, and the control group was administered the same volume of blank vehicle.
# After 10 days of administration, the mice were sacrificed. The tumors were exfoliated, homogenized, and the 2-HG content in the tumor was examined.
# The 2-HG concentration in the homogenate of each animal tumor in each group was determined by LC-MS/MS. The percentage (2-HG %) was calculated; the calculation formula is as follows 2-HG %=(2-HG concentration of administration group tumor−2-HG concentration of U87-MG control group tumor)/(2-HG concentration of U87−MG(IDH2-R140Q) control group tumor−2-HG concentration of U87-MG control group tumor)×100%.
structure (smiles),measurement,setting,value
"CC(C)(O)CNc1nc(Nc2ccnc(C(F)(F)F)c2)nc(-c2cccc(C(F)(F)F)n2)n1 [AG-221, 2-methyl-1-(4-(6-(trifluoromethyl)pyridin-2-yl)-6-(2-(trifluoromethyl)pyridin-4-ylamino)-1,3,5-triazin-2ylamino)propan-2-ol, reference compound]",Numbers of surviving animals,"[1]; 15 mg/kg, 8 animals per group",6
same,Numbers of surviving animals,"[1]; 45 mg/kg, AG-221 group 4 animals, Example 22B group 8",3
same,IC50,IDH2-R140Q mutant enzyme,21 nM
same,Intratumor 2-HG(%) after 10 days of administration,[2]; 6.25 mg/kg,58%
same,Intratumor 2-HG(%) after 10 days of administration,[2]; 12.5 mg/kg,9%
same,Intratumor 2-HG(%) after 10 days of administration,[2]; 25 mg/kg,−4%
